Measurements taken from US20210382037A1, “IDENTIFICATION AND USE OF CYTOTOXIC T LYMPHOCYTE (CTL) ANTIGEN-SPECIFIC TARGET CELL KILLING ENHANCER AGENTS” (DANA-FARBER CANCER INSTITUTE, INC., priority 2017, published 2021).

Experiments:
[1] = target: chicken ovalbumin residues 257-264 (SIINFEKL) in the context of H-2Kb, presented on ID8-lucOS cells (mouse; chicken); experiment: cell-based or functional assay
[2] = system: ID8-lucOS cells (OVA-expressing ID8 target cells) co-cultured with OT-I CD8+ T cells; experiment: OT-I CTL assay, high-throughput compound screen and dose-response validation; assay type: cell-based, mouse; conditions: for effect on OT-I T cell-mediated target cell lysis (normalized firefly/renilla luciferase ratio relative to DMSO): pilot screen, 1 μM, duplicate plates; for effect on OT-I T cell-mediated target cell lysis (normalized firefly/renilla luciferase ratio relative to DMSO) / effect on OT-I T cell killing of ID8-lucOS target cells, dose-response validation: 48 hr; for effect on OT-I T cell killing of ID8-lucOS target cells, dose-response validation: dose-response curves
Method: 10,000 ID8-lucOS and 10,000 ID8-rluc cells were plated in 1004, of cell culture media (DMEM+10% FBS+pen/strep) in solid white, flat-bottomed, tissue culture-treated 96-well plates (Thermo Fisher, Waltham, Mass.). Overnight-stimulated OT-I CD8^+ T cells were then added at the designated Effector:Target ratios with or without compounds in a total volume of 200 μL. Plates were incubated for 48 hr at 37° C. and 5% CO2. After 48 hr timepoint, 1004, of media was removed prior to dual-luciferase assay. Briefly: 504, of homemade Dual-Glo® luciferase buffer (Lu et al. Science 343: 305-309) was added to wells and incubated for 30 min before analysis of Firefly luminescence; then 504, of Dual-Glo® Stop & Glo® buffer was added, plates were incubated for 30 min, then analyzed for Renilla luminescence. An EnSpire plate reader (PerkinElmer, Waltham, Mass.) was used for quantification of luminescence. 203 compounds (listed above; details for LINCS kinase library can be found at lincs.hms.harvard.edu/db/sm/) were screened in high-throughput at 1 μM final concentration in duplicate, in 96-well plates in a first set that contained both OT-I CTLs and ID8 target cells and in a second set that contained ID8 target cells only. No compounds were placed in edge wells and all plates contained multiple DMSO control cells. Hits were calculated based on ΔΔCt method whereby ΔΔCt=(FLucDMSO/RLucDMSO)/(FLucCompound/RLucCompound) where values >1 were assessed as having augmented CTL killing, values ˜1 were assessed as having negligible immunomodulatory effect, and values <1 were assessed as having inhibited CTL killing. Hits from the high-throughput screen were validated with dose response curves using the indicated drug concentrations.
For development of the OT-I IO assay, the ID8 murine serous ovarian carcinoma cell line was utilized due to its constitutive expression of MHC class-I, MHC haplotype compatibility with C57BL/6J mice, and dramatic IFN-γ-induced upregulation of PD-L1 (FIG. 10A and FIG. 10B). ID8s were transduced with pLVX vectors to express either firefly luciferase and OVA model antigen (“lucOS”) or renilla luciferase and no model antigen (“rluc”) (FIG. 2A). Target ID8 cell lines were mixed at a 1:1 ratio and co-cultured with CD8+ T cells isolated from the spleens of OT-I TCR-transgenic mice; OT-I mice express transgenic TCRα-V2 and TCRβ-V5 genes such that all CD8+ T cell receptors recognize chicken ovalbumin residues 257-264 ([…]) in the context of H-2Kb (Hogquist et al., 1994 Cell, 76:17-27). Target cell-T cell cultures were incubated with compounds for 48 hr and then analyzed by dual-luciferase assay whereby changes in firefly signal relative to controls indicated modulation of T cell killing by compound treatment (FIG. 2B and FIG. 2C).
A high-throughput assay capable of identifying test compounds that specifically impaired or enhanced CD8^+ T cell-mediated killing of target ID8-lucOS “clone B9” cells in an antigen-specific manner was developed, as depicted in FIG. 2B. In such assays, a 96-well tissue culture plate array format was employed, and in each well, 10,000 ID8-lucOS and 10,000 ID8-rluc were co-plated. […] The OT-I assay was then performed as a high-throughput screen (FIG. 2C) to evaluate test compounds for immunomodulatory effects upon antigen-specific tumor cell killing by cytotoxic T lymphocytes (CTLs). Inclusion of ID8-lucOS and ID8-rluc in each well of the array-formatted test compound assay provided in-plate normalization controls, which allowed for identification of test compounds that effected non-specific growth inhibition or induction of apoptosis, versus identification of modulation by screen compounds of antigen-specific tumor cell killing by cytotoxic T lymphocytes. Such high-throughput screening was performed under standard ID8 cell growth conditions (37° C. and 5% 02) for initial rounds of test compound screening. […]

[3] = system: OVA-expressing KP cells (Kras^G12D/p53^−/− lung adenocarcinoma) co-cultured with OT-I CD8+ T cells; conditions: KP-Cas9 lucOS cells co-cultured with OT-I CD8+ T cells
Source text: The KP cell line was transduced with the same vectors to stably express Cas9 and the lusOS construct and co-cultured with OT-I CD8+ T cells.

[4] = system: MHC class-I (H-2K^b) on ID8 tumor cells; experiment: Flow cytometry of MHC class-I expression, ID8; assay type: cell-based, mouse; conditions: 100 nM, 48 hr, vs DMSO; for basal expression of MHC class-I by ID8 tumor cells: no IFN-γ; for MHC class-I expression induced by physiological levels of IFN-γ, ID8 tumor cells: with recombinant mouse IFN-γ
Method: 100,000 ID8-lucOS, ID8-lucOS sgEGFR KO, Kras^G12D;p53^−/−, and MC38 cell lines were cultured in 12-well plates in 2 mL of culture media (DMEM+10% FBS+pen/strep) alone or supplemented with 4 ng/mL recombinant mouse IFN-γ (Biolegend, San Diego, Calif.) for 48 hr. […] Data were analyzed using FlowJo (Ashland, Oreg.) software version 10.0.9.

[5] = system: IFN-γ secretion by OT-I CD8+ T cells; experiment: OT-I IFN-γ ELISA; assay type: cell-based, mouse; conditions: supernatants at 48 hr; 100, 50, 10, 5, 1 nM; E:T 1:1 and 2:1
Method: The supernatants from OT-I CTL assays, as described above, were harvested at the 48 hr timepoint prior to dual luciferase assay and analyzed for IFN-γ secretion by LEGEND MAX™ Mouse IFN-γ ELISA Kit (Biolegend, San Diego, Calif.) according to the manufacturer's protocol. […] Conditions were assayed with four replicate wells per experiment.
Cell culture media from the OT-I IO assay was harvested from wells following 48 hr of culture with a range of EGFR inhibitors and the JAK2 inhibitor AZD-1480 and assessed for IFN-γ levels by ELISA. Secretion of IFN-γ was used as a proxy for OT-I T cell effector function. […] None of the EGFR inhibitors affected IFN-γ secretion, leading to the conclusion that the immunomodulatory effect of EGFR inhibition in the assay was not due to T cell-intrinsic effects.

r/m SCCHN = r/m SCCHN patients; cited from earlier work
MC38 colon cancer cells = assay type: in vivo; conditions: log-rank Mantel-Cox
Method: C57BL/6J stock #000664 mice (Jackson labs, Bar Harbor, Me.) were challenged subcutaneously with 500,000 MC38 colon cancer cells on their flanks and “enrolled” on-study when tumors reached 50 mm^3. […] Depleting aCD8α was administered two days prior to first aPD-1 treatment. Mice used in experiments were 7-8 weeks of age at time of tumor challenge. Endpoint was considered to be when tumors reached a size of 2000 mm^3 or as mandated by institutional guidelines due to development of necrotic lesions.
Specifically, for each of the experiments, C57BL/6J mice were challenged subcutaneously with 500,000 MC38 colon cancer cells on their flanks and “enrolled” on-study when tumors reached 50 mm^3. […] Flank tumor growth curves were analyzed using two-way ANOVA, bar graphs were analyzed using unpaired Student's t-test, and survival experiments used the log-rank Mantel-Cox test for survival analysis, all indicated with *p<0.05; **p<0.01; ***p<0.001.

Q: With “OT-I transgenic T cell receptor (TCRα-V2 / TCRβ-V5) on OT-I CD8+ T cells” as the compound, how does the % killing of OVA-expressing ID8-lucOS target cells (dual-luciferase assay, 48 hr) [1] read?
A: Its % killing of OVA-expressing ID8-lucOS target cells (dual-luciferase assay, 48 hr) is 50 % killing.

Q: Which “effect on OT-I T cell-mediated target cell lysis (normalized firefly/renilla luciferase ratio relative to DMSO)” value [2] does the source give for `O=C(O)c1ccc(Nc2ncc3c(n2)-c2ccc(Cl)cc2C(c2c(F)cccc2F)=NC3)cc1` [MLN8054] here?
A: Its value is “inhibited T cell-mediated target cell lysis”.

Q: For `CN1C(=O)c2ccccc2N(C)c2nc(Nc3ccc(N4CCC(O)CC4)cc3)ncc21` [XMD-12-1], which “effect on OT-I T cell-mediated target cell lysis (normalized firefly/renilla luciferase ratio relative to DMSO)” value [2] is on record?
A: The value was “inhibited T cell-mediated target cell lysis”.

Q: For `C#Cc1cccc(Nc2ncnc3cc(OCCOC)c(OCCOC)cc23)c1` [erlotinib], which “OT-I T cell-mediated lysis of OVA-expressing KP cells” value (“OT-I T cell-mediated lysis” for short) [3] is on record?
A: Its value is “significantly enhanced”.

Q: And the “basal expression of MHC class-I by ID8 tumor cells” value (“basal expression of MHC class-I” for short) [4]?
A: Its value is “significantly increased”.

Q: What about the “MHC class-I expression induced by physiological levels of IFN-γ, ID8 tumor cells” value [4] of the same compound?
A: The value was “significantly increased”.

Q: And the “effect on OT-I T cell killing of ID8-lucOS target cells, dose-response validation” value (from here on “effect on OT-I T cell killing”) [2]?
A: Its value is “confirmed to augment T cell-mediated tumor cell lysis”.

Q: What about the “effect on OT-I T cell-mediated target cell lysis (normalized firefly/renilla luciferase ratio relative to DMSO)” value [2] of the same compound?
A: The value was “significantly augmented T cell killing”.

Q: And the “IFN-γ secretion (ELISA)” value [5]?
A: Its value is “did not appear to exert any enhancing effect”.

Q: Which “reported ORR to monotherapy” value (r/m SCCHN) does the source give for pembrolizumab here?
A: Its value is 16%.

Q: Which “effect on OT-I T cell-mediated target cell lysis (normalized firefly/renilla luciferase ratio relative to DMSO)” value [2] does the source give for `CC(C)(C)c1cnc(CSc2cnc(NC(=O)C3CCNCC3)s2)o1` [SNS-032] here?
A: Its value is “inhibited T cell-mediated target cell lysis”.

Q: Which “effect on OT-I T cell killing” value [2] does the source give for `O=c1sn(-c2cccc3ccccc23)c(=O)n1Cc1ccccc1` [tideglusib] here?
A: Its value is “only mildly immunomodulatory”.

Q: Which “effect on OT-I T cell killing” value [2] does the source give for `C=CC(=O)Nc1cc(Nc2nccc(-c3cn(C)c4ccccc34)n2)c(OC)cc1N(C)CCN(C)C` [osimertinib] here?
A: The value was “modestly enhanced killing”.

Q: With `COc1cc2ncnc(Nc3ccc(F)c(Cl)c3)c2cc1OCCCN1CCOCC1` [gefitinib] as the compound, how does the “OT-I T cell-mediated lysis” value [3] read?
A: Its value is “significantly enhanced”.

Q: What about the “basal expression of MHC class-I” value [4] of the same compound?
A: Its value is “significantly increased”.

Q: What about the “MHC class-I expression induced by physiological levels of IFN-γ, ID8 tumor cells” value [4] of the same compound?
A: The value was “significantly increased”.

Q: And the “effect on OT-I T cell killing” value [2]?
A: Its value is “significantly augmented OT-I T cell killing”.

Q: And the “IFN-γ secretion (ELISA)” value [5]?
A: Its value is “did not appear to exert any enhancing effect”.

Q: For `COc1cc(OC)c(/C=C/S(=O)(=O)Cc2ccc(OC)c(NCC(=O)O)c2)c(OC)c1` [Rigosertib], which “effect on OT-I T cell-mediated target cell lysis (normalized firefly/renilla luciferase ratio relative to DMSO)” value [2] is on record?
A: The value was “inhibited T cell-mediated target cell lysis”.

Q: What does the source list for `Cc1cc(Nc2nc(N[C@@H](C)c3ncc(F)cn3)ncc2Cl)n[nH]1` [AZD-1480]?
A: effect on OT-I T cell killing of ID8-lucOS target cells, dose-response validation [2]: significantly inhibited T cell killing; effect on OT-I T cell-mediated target cell lysis (normalized firefly/renilla luciferase ratio relative to DMSO) [2]: inhibited T cell-mediated target cell lysis; IFN-γ secretion (ELISA) [5]: significantly inhibited IFN-γ secretion in a dose-dependent manner

Q: With `CN(C)C/C=C/C(=O)Nc1cc2c(Nc3ccc(F)c(Cl)c3)ncnc2cc1O[C@H]1CCOC1` [afatinib] as the compound, how does the “OT-I T cell-mediated lysis” value [3] read?
A: Its value is “significantly enhanced”.

Q: And the “basal expression of MHC class-I” value [4]?
A: The value was “significantly increased”.

Q: What about the “MHC class-I expression induced by physiological levels of IFN-γ, ID8 tumor cells” value [4] of the same compound?
A: The value was “significantly increased”.

Q: What about the “lysis of OVA-expressing ID8 target cells” value ([2]; concentrations down to 10 nM) of the same compound?
A: Its value is “lysis of almost all OVA-expressing ID8 target cells”.

Q: What about the “effect on OT-I T cell killing” value [2] of the same compound?
A: The value was “significantly augmented OT-I T cell killing”.

Q: What about the “reported ORR to monotherapy” value (r/m SCCHN) of the same compound?
A: The value was 10%.

Q: What about the “survival relative to controls” value (MC38 colon cancer cells) of the same compound?
A: Its value is “none”.

Q: And the “IFN-γ secretion (ELISA)” value [5]?
A: The value was “did not appear to exert any enhancing effect”.

Q: With `O=C1Nc2ccccc2/C1=C1/Nc2ccccc2C1=O` [indirubicin] as the compound, how does the “effect on OT-I T cell killing” value [2] read?
A: The value was “only mildly immunomodulatory”.

Q: Which results are given for `O=C1Nc2cc(Br)ccc2C1=C1Nc2ccccc2C1=O` [6-bromoindirubin]?
A: effect on OT-I T cell killing of ID8-lucOS target cells, dose-response validation [2]: only modestly augmented T cell killing; effect on OT-I T cell-mediated target cell lysis (normalized firefly/renilla luciferase ratio relative to DMSO) [2]: significantly augmented T cell killing
